The subject of this experiment is Klebsiella pneumoniae. Nature of the experiment: experimental infection with Klebsiella pneumoniae in the mouse. The following applies: i.v. It counts as in vivo.

Here are results for one molecule from US4637997A, “Hexapeptide, process for obtaining II and the pharmaceutical compositions containing II” (Institut National de la Sante et de la Recherche Medicale, priority 1984, dated 1987).

Molecules are shown by their SMILES. Peptide text beside a SMILES is read from it. Bounds are passed on as bounds.

With `CC[C@H](C)[C@H](NC(=O)[C@@H]1CCCN1C(=O)[C@H](CCC(=O)O)NC(=O)[C@@H](N)C(C)C)C(=O)N1CCC[C@H]1C(=O)N[C@@H](Cc1ccc(O)cc1)C(=O)O` [hexapeptide of formula (I), Val-Glu-Pro-Ile-Pro-Tyr] (H-VEPIPY-OH), the “dose from which remarkable activity against experimental infection is exhibited” value is at least 0.05 mg/kg.
